Measurements published in PMC8041284, “Tunable Methacrylamides for Covalent Ligand Directed Release Chemistry” (Journal of the American Chemical Society, 2021).
Where a SMILES comes first, the peptide text is derived from it. Bridges are numbered along the chain shown (N, C = ends). [ ]: non-standard residue; d: D form. The star is where a group is joined. Ileψ(thiazoline)Cys = CC[C@H](C)[C@H](N)C1=N[C@H](C(=O)*)CS1; dOrn = NCCC[C@@H](N)C(=O)O

Molecular target: BTK (Homo sapiens, UniProt Q06187)
Assay: biochemical
Details: read-out: BTK inhibition (%)

Sequence of BTK (Q06187 402-655 limits assumed): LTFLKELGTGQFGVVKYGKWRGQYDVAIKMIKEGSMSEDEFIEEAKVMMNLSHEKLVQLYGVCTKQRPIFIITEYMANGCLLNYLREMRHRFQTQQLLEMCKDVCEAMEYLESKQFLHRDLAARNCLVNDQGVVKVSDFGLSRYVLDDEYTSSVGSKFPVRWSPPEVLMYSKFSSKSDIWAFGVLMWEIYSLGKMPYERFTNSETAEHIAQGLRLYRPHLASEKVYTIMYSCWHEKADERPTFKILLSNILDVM

Row | Structure (SMILES) | inhibition at 10 µM [%]
1 | Cc1cc(C(=O)CN2CCCC2)c(C)n1-c1ccc(F)cc1 [PCM-0215202] | 5.4

Same assay, conditions: read-out: BTK inhibition (%), 0.75 uM BTK, […] probe 3l, 15 min preincubation

Row | Structure (SMILES) | inhibition at 10 µM [%]
2 | O=C1CC(=O)c2c(Cl)c(Cl)c(Cl)c(Cl)c21 [PCM-0215201] | 79.5
3 | CN(C)[C@@H]1C(=O)C(C(N)=O)=C(O)[C@@]2(O)C(=O)C3=C(O)c4c(O)ccc(Cl)c4[C@@](C)(O)[C@H]3C[C@@H]12 [PCM-0215204] | 10.2
4 | CC(=O)c1cc([N+](=O)[O-])c(Sc2ccc(F)cc2F)s1 [PCM-0215212] | 5.4
5 | NC[C@@H]1O[C@H](O[C@H]2[C@@H](O)[C@H](O[C@@H]3[C@@H](O)[C@H](N)C[C@H](N)[C@H]3O[C@H]3O[C@H](CO)[C@@H](O)[C@H](O)[C@H]3N)O[C@@H]2CO)[C@H](N)[C@@H](O)[C@@H]1O [PCM-0215214] | 5.1
6 | c1ccc(CNc2nc(NCc3ccccc3)c3ccccc3n2)cc1 [PCM-0215216] | 10.8
7 | NC[C@H]1O[C@H](O[C@H]2[C@H](O[C@@H]3O[C@H](CO)[C@@H](O)[C@H]3O)[C@@H](O)[C@H](N)C[C@@H]2N)[C@H](N)[C@@H](O)[C@@H]1O [PCM-0215219] | 25.5
8 | CN[C@@H]1[C@@H](O[C@H]2O[C@H](CO)[C@@H](N)[C@H](O)[C@H]2O)O[C@H]2C[C@@H](N)[C@@H](O[C@H]3[C@H](O)[C@@H](O)[C@H](N)C[C@@H]3N)O[C@@H]2[C@@H]1O [PCM-0215222] | 8.5
9 | Cc1cc(SCc2sc(-c3ccc(C(F)(F)F)cc3)nc2C)ccc1OCC(=O)O [PCM-0215226] | 23.9
10 | Cn1cnc2c(F)c(Nc3ccc(Br)cc3F)c(C(=O)NOCCO)cc21 [PCM-0215228] | 22.8
11 | O=C(NNc1nc2cc(F)ccc2n2cccc12)c1cnccn1 [PCM-0215229] | 30.1
12 | CCNC(=O)C[C@@H]1N=C(c2ccc(Cl)cc2)c2cc(OC)ccc2-n2c(C)nnc21 [PCM-0215230] | -20.8
13 | COc1ccc(/C=C\c2cc(OC)c(OC)c(OC)c2)cc1OP(=O)(O)O [PCM-0215231] | -27.2
14 | CCN=C1N[C@@H]2[C@@H](O)[C@H](O)[C@@H](CO)O[C@@H]2S1 [PCM-0215232] | 3.1
15 | O=C(NN=Cc1ccc(O)c(O)c1)c1cc2ccccc2cc1O [PCM-0215235] | 32.4
16 | O=C1C(Cl)=C(N2CCOCC2)C(=O)N1c1ccc(Cl)c(Cl)c1 [PCM-0215236] | -0.8
17 | Cn1cc(C2=C(c3cn(CCCSC(=N)N)c4ccccc34)C(=O)NC2=O)c2ccccc21 [PCM-0215237] | 117

Row | Structure (SMILES) | inhibition at 10 µM [%]
18 | COC(=O)[C@]12CCC(C)(C)C[C@H]1[C@H]1C(=O)C=C3[C@@]4(C)C=C(C#N)C(=O)C(C)(C)[C@@H]4CC[C@@]3(C)[C@]1(C)CC2 [PCM-0215239] | 16.6
19 | CC(C)(C)NS(=O)(=O)c1cncc(-c2cc(F)c3nc(N)nn3c2)c1 [PCM-0215240] | -4.8
20 | Cc1cc(Nc2ccc(NC(=O)c3ccc(Nc4ccnc5ccccc45)cc3)cc2)nc(N)n1 [PCM-0215241] | 17
21 | CC(C)(C#N)c1ccc(N2C(=O)OCc3cnc4ccc(-c5cnc6ccccc6c5)cc4c32)cc1 [PCM-0215242] | -4.8
22 | Fc1cc(F)c2c(c1)[C@H]1C=CC[C@H]1C(c1cccnc1)N2 (stereo partly drawn) [PCM-0215243] | -18.5
23 | COc1cc(-c2ncn(/C=C\C(=O)OC(C)C)n2)cc(C(F)(F)F)c1 [PCM-0215247] | -11.6
24 | O=C1c2ccc(Nc3ccc(F)cc3F)cc2CCc2ccc(OC[C@H](O)CO)cc21 [PCM-0215248] | 13.1
25 | CCCC(CCC)C(=O)OC1C[C@H]2CC[C@@H](C1)[N+]2(C)C (stereo partly drawn) [PCM-0215249] | -37.4
26 | O=C(O)[C@H](O)[C@H](O)[C@@H](O)[C@H](O)[C@H](O)CO [PCM-0215251] | -28.9
27 | CCCCC(C)(O)C/C=C/[C@H]1[C@H](O)CC(=O)[C@@H]1CCCCCCC(=O)OC (stereo partly drawn) [PCM-0215257] | -7.8
28 | CN1CCC[C@H]1c1cccnc1 [PCM-0215258] | -1.6
29 | Cc1ccc2nc(NCCN)c3ncc(C)n3c2c1 [PCM-0215260] | -16.6
30 | Cc1cc(/C=C/C#N)cc(C)c1Nc1ccnc(Nc2ccc(C#N)cc2)n1 [PCM-0215269] | 19.3
31 | Cc1ccc(S(=O)(=O)Cc2nc(-c3ccc(C(=O)NCc4cccnc4)cc3)oc2C)cc1 [PCM-0215271] | -4.6
32 | COc1ccc(-n2c(C)c([N+](=O)[O-])c3ccc(O)cc32)cc1 [PCM-0215272] | 23.4

Results, then the molecule that gave them:

Row | inhibition at 10 µM [%] | Structure (SMILES)
33 | -18.5 | CC(C)N(CCCNC(=O)Nc1ccc(C(C)(C)C)cc1)C[C@H]1O[C@@H](n2ccc3c(N)ncnc32)[C@H](O)[C@@H]1O [PCM-0215195]
34 | -0.8 | CC[C@@H](C)Nc1cc(C(=O)NC2C[C@H]3CC[C@@H](C2)N3c2ccc(C(=O)C3CC3)cn2)c(C)cc1C(N)=O (stereo partly drawn) [PCM-0215196]
35 | -5.5 | CN1CC[C@@H](c2c(O)cc(O)c3c(=O)cc(-c4ccccc4Cl)oc23)[C@@H]1CO [PCM-0215197]
36 | 106 | O=C(NC(NC(=S)Nc1ccc(F)c([N+](=O)[O-])c1)C(Cl)(Cl)Cl)C(c1ccccc1)c1ccccc1 (stereo not drawn) [PCM-0215199]
37 | -27.2 | CC[C@H](C)[C@H](N)C1=N[C@H](C(=O)N[C@@H](CC(C)C)C(=O)N[C@H](CCC(=O)O)C(=O)N[C@H](C(=O)N[C@H]2CCCCNC(=O)[C@H](CC(N)=O)NC(=O)[C@@H](CC(=O)O)NC(=O)[C@H](Cc3cnc[nH]3)NC(=O)[C@@H](Cc3ccccc3)NC(=O)[C@H]([C@@H](C)CC)NC(=O)[C@@H](CCCN)NC2=O)[C@@H](C)CC)CS1 [PCM-0215200] ({Ileψ(thiazoline)Cys}-L[dE]IK[dOrn]I[dF]H[dD]N; lactam 4-C)
38 | -16.2 | CO/N=C(\C(=O)N[C@@H]1C(=O)N2C(C(=O)O)=C(CSc3nc(=O)c(O)nn3C)CS[C@H]12)c1csc(N)n1 [PCM-0215203]
39 | -6.8 | CCOC(CN1CCN(CC(C)C(=O)c2ccccc2)CC1)c1ccccc1 (stereo not drawn) [PCM-0215205]
40 | -8.5 | CCOc1ccccc1N=Nc1c(C)[nH]n(-c2nc(-c3ccccc3)cs2)c1=O [PCM-0215207]
41 | 91 | C=CC(=O)Nc1cccc(Nc2nc(Nc3ccc(NC4CN(CCF)C4)cc3OC)ncc2C(F)(F)F)c1 [PCM-0215208]
42 | 114 | Cc1ccc(C(=O)Nc2ccc(CN3CCN(C)CC3)c(C(F)(F)F)c2)cc1C#Cc1cnc2[nH]ncc2c1 [PCM-0215209]
43 | -6.9 | Cc1ccccc1C(C(=O)NC1CCCCC1)N(C(=O)Cn1ccnc1C)c1cccc(F)c1 (stereo not drawn) [PCM-0215210]
44 | 95.9 | COc1cc(N2CCC(N)CC2)ccc1Nc1ncc(Cl)c(-c2c[nH]c3ccccc23)n1 [PCM-0215211]
45 | -17 | CN[C@@H](C)C(=O)N[C@H](C(=O)N1CCC[C@H]1C(=O)Nc1snnc1-c1ccccc1)C1CCCCC1 [PCM-0215217]
46 | 15.4 | CC(C)C[C@H](NC(=O)[C@H]1O[C@@H]1C(=O)O)C(=O)NCCCCN=C(N)N [PCM-0215218]
47 | -6.8 | Cc1cc(C)c(CNC(=O)c2cc(-c3ccc(CN4CCOCC4)cc3)cc3c2cnn3C2CCCC2)c(=O)[nH]1 [PCM-0215223]
48 | -17 | CC(=O)N1CCN(CCOc2ccc(C3CCN(C4=Nn5c(nnc5C(F)(F)F)CC4)CC3)cc2)CC1 [PCM-0215224]
49 | 6.2 | Cc1cc(Cn2cnc3c2C[C@@H](C(=O)O)N(C(=O)C(c2ccccc2)c2ccccc2)C3)ccc1N(C)C [PCM-0215225]
50 | 17.9 | c1ccc2c(Oc3nc(Nc4ccc(N5CCOCC5)cc4)c4ncn(C5CCCCC5)c4n3)cccc2c1 [PCM-0215227]
51 | 0.8 | O=C(Nc1cc2cc[nH]c2cn1)c1ccccc1 [PCM-0215233]

Row | inhibition at 10 µM [%] | Structure (SMILES)
52 | -9.3 | CC(=O)Nc1cccc2c1c(Sc1ccc(Cl)cc1)c(C)n2CC(=O)O [PCM-0215238]
53 | 1.4 | Cc1c(C(=O)N2CCOc3ccc(-c4ccc(N)nc4)cc3C2)ccc(S(C)(=O)=O)c1F [PCM-0215244]
54 | 95.9 | C=CC(=O)Nc1cccc(Nc2nc(Nc3ccc(N4CCN(C(C)=O)CC4)cc3OC)ncc2C(F)(F)F)c1 [PCM-0215245]
55 | -6.9 | CCn1c2ccccc2c2cc(Nc3ccnc(NCCCN4CCOCC4)n3)ccc21 [PCM-0215246]
56 | -10.1 | O=C(O)c1ccc(NC(=O)[C@H](Cc2ccc(O)cc2)NC(=O)c2ccccc2)cc1 [PCM-0215250]
57 | 26.5 | CC1(C)[C@@H](OC(=O)CCC(=O)O)CC[C@]2(C)[C@H]3C(=O)C=C4[C@@H]5C[C@@](C)(C(=O)O)CC[C@]5(C)CC[C@@]4(C)[C@]3(C)CC[C@@H]12 [PCM-0215252]
58 | 6.8 | CC(C)(O/N=C(\C(=O)N[C@@H]1C(=O)N2C(C(=O)[O-])=C(C[n+]3ccccc3)CS[C@H]12)c1csc(N)n1)C(=O)O [PCM-0215253]
59 | 3.1 | CC(=O)OCC1=C(C(=O)O)N2C(=O)[C@@H](NC(=O)CSc3ccncc3)[C@H]2SC1 [PCM-0215254]
60 | -7.8 | C[N+]1(C)CCCC(OC(=O)C(O)(c2ccccc2)c2ccccc2)C1 (stereo not drawn) [PCM-0215256]
61 | 9.4 | Cc1ccc(C(=O)c2ccc(CC(=O)O)n2C)cc1 [PCM-0215259]
62 | 94.2 | O=C(NCc1ccc(Oc2ccccc2)cc1)c1nc(-c2cc(Br)c(O)c(Br)c2)no1 [PCM-0215261]
63 | 4.8 | O=C(Nc1ccc(-c2ccnc(Nc3ccc(N4CCOCC4)cc3)n2)cc1)[C@@H]1CCCN1 [PCM-0215262]
64 | 17.2 | COc1c(C)c(C(=O)c2ccc(N)c(C(=O)O)c2)n2ccccc12 [PCM-0215263]
65 | 37.9 | N#Cc1c(Oc2ccc(F)c(NC(=O)Cc3cccc(C(F)(F)F)c3)c2)ccc2nc(NC(=O)C3CC3)sc12 [PCM-0215264]
66 | 6.2 | Clc1ccc(N/N=C(\c2ccccc2)c2ccccn2)nc1 [PCM-0215265]
67 | -14.7 | CCC(CC)(NC(=O)C(C)C)C(=O)N[C@@H](CCCN=C(N)N)C(=O)NC1(C(=O)NC(c2ccc(F)cc2)c2ccc(F)cc2)CCCC1 [PCM-0215267]
68 | 71.7 | C1=C/COCc2cc(ccc2OCCN2CCCC2)Nc2nccc(n2)-c2cccc(c2)COC/1 [PCM-0215268]
69 | 89 | COc1cc(N2CCC(N3CCN(C)CC3)CC2)ccc1Nc1ncnc(Nc2ccccc2S(=O)(=O)C(C)C)n1 [PCM-0215273]
